Columns and labels:
Experiment in all cases: weeding effect in post-emergence stage
Assay type in all cases: in vivo
[1] = tested on: Beckmannia syzigachne
Description: (§1) The activity level criteria for plant damage (i.e., growth control rate) are as follows: • Level 5: growth control rate is above 85%; • Level 4: growth control rate is greater than or equal to 60% and less than 85%; • Level 3: growth control rate is greater than or equal to 40% and less than 60%; • Level 2: growth control rate is greater than or equal to 20% and less than 40%; • Level 1: growth control rate is greater than or equal to 5% and less than 20%; • Level 0: growth control rate is less than 5%.
(§2) The above growth control rates are fresh weight control rates.
(§3) Experiment on weeding effect in post-emergence stage:
(§4) Monocotyledonous and dicotyledonous weed seeds (Descurainia sophia, Capsella bursa-pastoris, Abutilon theophrasti, Galium aparine, Stellaria media, Lithospermum arvense, Rorippa indica, Alopecurus aequalis, Alopecurus japonicus, Beckmannia syzigachne, Sclerochloa dura, Conyza Canadensis, Phleum paniculatum, Veronica didyma Tenore, Bromus japonicus, Aegilops tauschii, Phalaris arundinacea, Amaranthus retroflexus, Chenopodium album, Commelina communis, Sonchus arvensis, Convolvulus arvensis, Cirsium setosum, Solanum nigrum, Acalypha australis, Digitaria sanguinalis, Echinochloa crusgalli, Setaria viridis, Setaria glauca, Leptochloa chinensis, Monochoria vaginalis, Sagittaria trifolia, Scirpus juncoides, Cyperus rotundus, Cyperus iria, Cyperus difformis, Fimbristylis, Portulaca oleracea, Xanthium sibiricum, Pharbitis nil, Conyza japonica, etc.) and major crop seeds (wheat, corn, rice, soybean, cotton, oilseed rape, millet, sorghum, potato, sesame, ricinus, etc.) were placed in plastic pots filled with soil, then covered with 0.5-2 cm of soil, allowed to grow in a good greenhouse environment. After 2 weeks of sowing, the test plants were treated in the 2-3 leaf stage. The tested compounds of the present invention were respectively dissolved in acetone, then added with Tween 80 and 1.5 liter/ha of emulsifiable concentrate of methyl oleate as synergist, diluted with a certain amount of water to obtain a solution with a certain concentration, and sprayed with a spray tower onto the plants. After the application, the plants were cultured for 3 weeks in the greenhouse, and then the experimental results of the weeding were counted. The doses of the used compounds were 500, 250, 125, 60, 15, 7.5 g a.i./ha, and the averages were obtained by repeating for three times.

[2] = tested on: Conyza japonica
Description: as §1, §2, §3, §4

[3] = tested on: Rorippa indica
Description: as §1, §2, §3, §4

[4] = tested on: Alopecurus japonicus
Description: as §1, §2, §3, §4

SMILES	weeding effect in post-emergence stage, Beckmannia syzigachne (activity level) ([1]; dose 125 g a.i./ha)	weeding effect in post-emergence stage, Conyza japonica (activity level) ([2]; dose 125 g a.i./ha)	weeding effect in post-emergence stage, Rorippa indica (activity level) ([3]; dose 125 g a.i./ha)	weeding effect in post-emergence stage, Alopecurus japonicus (activity level) ([4]; dose 125 g a.i./ha)	weeding effect in post-emergence stage, Beckmannia syzigachne (activity level) ([1]; dose 15 g a.i./ha)	weeding effect in post-emergence stage, Conyza japonica (activity level) ([2]; dose 15 g a.i./ha)	weeding effect in post-emergence stage, Rorippa indica (activity level) ([3]; dose 15 g a.i./ha)	weeding effect in post-emergence stage, Alopecurus japonicus (activity level) ([4]; dose 15 g a.i./ha)
CCOC(=O)COC(C)C1(C(=O)OCC)CC(c2cc(-n3c(=O)n(C)c(=S)n(C)c3=O)c(F)cc2Cl)=NO1 (mixture of isomers) [Compound 55]	5 (Level 5: growth control rate is above 85%)	5 (Level 5: growth control rate is above 85%)	5 (Level 5: growth control rate is above 85%)	5 (Level 5: growth control rate is above 85%)				
CCOC(=O)C1(CC)CC(c2cc(-n3c(=O)n(C)c(=S)n(C)c3=O)c(F)cc2Cl)=NO1 (racemic) [Compound 3]	5 (Level 5: growth control rate is above 85%)	5 (Level 5: growth control rate is above 85%)	5 (Level 5: growth control rate is above 85%)	5 (Level 5: growth control rate is above 85%)	5 (Level 5: growth control rate is above 85%)	5 (Level 5: growth control rate is above 85%)	5 (Level 5: growth control rate is above 85%)	5 (Level 5: growth control rate is above 85%)
CCCC1(C(=O)OCC)CC(c2cc(-n3c(=O)n(C)c(=S)n(C)c3=O)c(F)cc2Cl)=NO1 (racemic) [Compound 4]	5 (Level 5: growth control rate is above 85%)	5 (Level 5: growth control rate is above 85%)	5 (Level 5: growth control rate is above 85%)	5 (Level 5: growth control rate is above 85%)	4 (Level 4: growth control rate is greater than or equal to 60% and less than 85%)	4 (Level 4: growth control rate is greater than or equal to 60% and less than 85%)	5 (Level 5: growth control rate is above 85%)	5 (Level 5: growth control rate is above 85%)
CCOC(=O)C1(C(C)C)CC(c2cc(-n3c(=O)n(C)c(=S)n(C)c3=O)c(F)cc2Cl)=NO1 (racemic) [Compound 5]	5 (Level 5: growth control rate is above 85%)	5 (Level 5: growth control rate is above 85%)	5 (Level 5: growth control rate is above 85%)	5 (Level 5: growth control rate is above 85%)	4 (Level 4: growth control rate is greater than or equal to 60% and less than 85%)	4 (Level 4: growth control rate is greater than or equal to 60% and less than 85%)	5 (Level 5: growth control rate is above 85%)	5 (Level 5: growth control rate is above 85%)
CCCCC1(C(=O)OCC)CC(c2cc(-n3c(=O)n(C)c(=S)n(C)c3=O)c(F)cc2Cl)=NO1 (racemic) [Compound 6]	5 (Level 5: growth control rate is above 85%)	5 (Level 5: growth control rate is above 85%)	5 (Level 5: growth control rate is above 85%)	5 (Level 5: growth control rate is above 85%)	5 (Level 5: growth control rate is above 85%)	5 (Level 5: growth control rate is above 85%)	5 (Level 5: growth control rate is above 85%)	5 (Level 5: growth control rate is above 85%)
CCOC(=O)C1(C2CC2)CC(c2cc(-n3c(=O)n(C)c(=S)n(C)c3=O)c(F)cc2Cl)=NO1 (racemic) [Compound 17]	5 (Level 5: growth control rate is above 85%)	5 (Level 5: growth control rate is above 85%)	5 (Level 5: growth control rate is above 85%)	5 (Level 5: growth control rate is above 85%)	5 (Level 5: growth control rate is above 85%)	5 (Level 5: growth control rate is above 85%)	5 (Level 5: growth control rate is above 85%)	5 (Level 5: growth control rate is above 85%)
CCOC(=O)C1(CC2CC2)CC(c2cc(-n3c(=O)n(C)c(=S)n(C)c3=O)c(F)cc2Cl)=NO1 (racemic) [Compound 26]	5 (Level 5: growth control rate is above 85%)	5 (Level 5: growth control rate is above 85%)	5 (Level 5: growth control rate is above 85%)	5 (Level 5: growth control rate is above 85%)	5 (Level 5: growth control rate is above 85%)	5 (Level 5: growth control rate is above 85%)	5 (Level 5: growth control rate is above 85%)	5 (Level 5: growth control rate is above 85%)
CCOC(=O)C1(CBr)CC(c2cc(-n3c(=O)n(C)c(=S)n(C)c3=O)c(F)cc2Cl)=NO1 (racemic) [Compound 31]	5 (Level 5: growth control rate is above 85%)	5 (Level 5: growth control rate is above 85%)	5 (Level 5: growth control rate is above 85%)	5 (Level 5: growth control rate is above 85%)				
